Measurements published in ChEMBL document CHEMBL1201862, “PubChem BioAssay data set” (2004).
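Results reflect a 48-hour exposure of cells in 96-well plates to compound at five concentrations. The concentration for 50% growth inhibition is given as GI50.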 Activity calls are given as the source filed them. Cut-off read from the data, not from the text of the source: active = GI50 up to about 1.1 µM and inactive = higher.

Assays:
Assay in all cases: growth of human tumour cells (NCI), 48 h
786-0 = tested on: 786-0
A498 = tested on: A498
A549 = tested on: A549
ACHN = tested on: ACHN
BT-549 = tested on: BT-549
CAKI-1 = tested on: CAKI-1
CCRF-CEM = tested on: CCRF-CEM
COLO 205 = tested on: COLO 205
DU-145 = tested on: DU-145
EKVX = tested on: EKVX
HCC 2998 = tested on: HCC 2998
HCT-116 = tested on: HCT-116
HCT-15 = tested on: HCT-15
HOP-62 = tested on: HOP-62
HOP-92 = tested on: HOP-92
HT-29 = tested on: HT-29
IGROV-1 = tested on: IGROV-1
K562 = tested on: K562
KM12 = tested on: KM12
LOX IMVI = tested on: LOX IMVI
M14 = tested on: M14
MCF7 = tested on: MCF7
MDA-MB-231 = tested on: MDA-MB-231
MDA-MB-435 = tested on: MDA-MB-435
MDA-N = tested on: MDA-N
MOLT-4 = tested on: MOLT-4
Malme-3M = tested on: Malme-3M
NCI-H226 = tested on: NCI-H226
NCI-H23 = tested on: NCI-H23
NCI-H460 = tested on: NCI-H460
NCI-H522 = tested on: NCI-H522
NCI/ADR-RES = tested on: NCI/ADR-RES
OVCAR-3 = tested on: OVCAR-3
OVCAR-4 = tested on: OVCAR-4
OVCAR-5 = tested on: OVCAR-5
OVCAR-8 = tested on: OVCAR-8
PC-3 = tested on: PC-3
RPMI-8226 = tested on: RPMI-8226
RXF 393 = tested on: RXF 393
SF-268 = tested on: SF-268
SF-295 = tested on: SF-295
SF-539 = tested on: SF-539
SK-MEL-28 = tested on: SK-MEL-28
SK-MEL-2 = tested on: SK-MEL-2
SK-MEL-5 = tested on: SK-MEL-5
SK-OV-3 = tested on: SK-OV-3
SN12C = tested on: SN12C
SNB-19 = tested on: SNB-19
SNB-75 = tested on: SNB-75
SR = tested on: SR
SW-620 = tested on: SW-620
T47D = tested on: T47D
TK-10 = tested on: TK-10
U-251 = tested on: U-251
UACC-257 = tested on: UACC-257
UACC-62 = tested on: UACC-62
UO-31 = tested on: UO-31

O=c1[nH]c2cc(C(F)(F)F)ccc2nc1C(F)(F)F
GI50 (786-0): 37 µM (inactive)
GI50 (A498): 41.3 µM (inactive)
GI50 (A549): 32.6 µM (inactive)
GI50 (ACHN): 37.3 µM (inactive)
GI50 (BT-549): 44.2 µM (inactive)
GI50 (CAKI-1): 30.3 µM (inactive)
GI50 (CCRF-CEM): 30.8 µM (inactive)
GI50 (COLO 205): 30.9 µM (inactive)
GI50 (DU-145): 33.8 µM (inactive)
GI50 (EKVX): 32.3 µM (inactive)
GI50 (HCC 2998): 49.7 µM (inactive)
GI50 (HCT-116): 27.5 µM (inactive)
GI50 (HCT-15): 37.2 µM
GI50 (HOP-62): 18.2 µM (inactive)
GI50 (HOP-92): 16.6 µM (inactive)
GI50 (HT-29): 36.4 µM (inactive)
GI50 (IGROV-1): 29.3 µM (inactive)
GI50 (K562): 50.2 µM (inactive)
GI50 (KM12): 23.7 µM (inactive)
GI50 (LOX IMVI): 30.8 µM (inactive)
GI50 (M14): 45.1 µM (inactive)
GI50 (MCF7): 53.6 µM (inactive)
GI50 (MDA-MB-231): 31.3 µM (inactive)
GI50 (MDA-MB-435): 34 µM (inactive)
GI50 (MDA-N): 32.7 µM (inactive)
GI50 (MOLT-4): 38.4 µM (inactive)
GI50 (Malme-3M): 35.2 µM (inactive)
GI50 (NCI-H226): 28.6 µM (inactive)
GI50 (NCI-H23): 27.2 µM (inactive)
GI50 (NCI-H460): > 100 µM (inactive)
GI50 (NCI-H522): 29.4 µM (inactive)
GI50 (NCI/ADR-RES): 37.9 µM (inactive)
GI50 (OVCAR-3): 18.5 µM (inactive)
GI50 (OVCAR-4): 51.5 µM (inactive)
GI50 (OVCAR-5): 36.9 µM (inactive)
GI50 (OVCAR-8): 36 µM (inactive)
GI50 (PC-3): 37.8 µM (inactive)
GI50 (RPMI-8226): 31.5 µM (inactive)
GI50 (RXF 393): 20.3 µM (inactive)
GI50 (SF-268): 40.4 µM (inactive)
GI50 (SF-295): 30 µM (inactive)
GI50 (SF-539): 25.2 µM (inactive)
GI50 (SK-MEL-28): 68.9 µM (inactive)
GI50 (SK-MEL-2): 33.7 µM (inactive)
GI50 (SK-MEL-5): 13.8 µM (inactive)
GI50 (SK-OV-3): 30.4 µM (inactive)
GI50 (SN12C): 29.7 µM (inactive)
GI50 (SNB-19): 35.6 µM (inactive)
GI50 (SNB-75): 30.2 µM (inactive)
GI50 (SR): 55.8 µM (inactive)
GI50 (SW-620): 53.3 µM (inactive)
GI50 (T47D): 36.6 µM (inactive)
GI50 (TK-10): 49.7 µM (inactive)
GI50 (U-251): 42 µM (inactive)
GI50 (UACC-257): 27.6 µM (inactive)
GI50 (UACC-62): 43.2 µM (inactive)
GI50 (UO-31): 30.4 µM (inactive)

COc1cccc(-c2[nH]c3cc4c(cc3c(=O)c2C(=O)O)OCO4)c1
GI50 (786-0): 44.8 µM (inactive)
GI50 (A498): 34.4 µM (inactive)
GI50 (A549): 44.7 µM (inactive)
GI50 (ACHN): 86.7 µM (inactive)
GI50 (BT-549): 51.3 µM (inactive)
GI50 (CAKI-1): 72.8 µM (inactive)
GI50 (CCRF-CEM): 27.4 µM (inactive)
GI50 (COLO 205): 26.5 µM (inactive)
GI50 (DU-145): 38.7 µM (inactive)
GI50 (EKVX): 79.1 µM (inactive)
GI50 (HCC 2998): 32.8 µM (inactive)
GI50 (HCT-116): 32.8 µM (inactive)
GI50 (HCT-15): 28.4 µM
GI50 (HOP-62): 62.8 µM (inactive)
GI50 (HOP-92): 27.5 µM (inactive)
GI50 (HT-29): 34.2 µM (inactive)
GI50 (IGROV-1): 37.8 µM (inactive)
GI50 (K562): 34.5 µM (inactive)
GI50 (KM12): 36.7 µM (inactive)
GI50 (LOX IMVI): 42.3 µM (inactive)
GI50 (M14): 26 µM (inactive)
GI50 (MCF7): 41 µM (inactive)
GI50 (MDA-MB-231): 57.5 µM (inactive)
GI50 (MDA-MB-435): 8.39 µM (inactive)
GI50 (MDA-N): 9.84 µM (inactive)
GI50 (MOLT-4): 24.2 µM (inactive)
GI50 (NCI-H226): 43.5 µM (inactive)
GI50 (NCI-H23): 31.9 µM (inactive)
GI50 (NCI-H460): 43.7 µM (inactive)
GI50 (NCI/ADR-RES): 17.8 µM (inactive)
GI50 (OVCAR-3): 44.4 µM (inactive)
GI50 (OVCAR-4): 28.6 µM (inactive)
GI50 (OVCAR-5): > 100 µM (inactive)
GI50 (OVCAR-8): 23.2 µM (inactive)
GI50 (PC-3): 57.5 µM (inactive)
GI50 (RPMI-8226): 41.2 µM (inactive)
GI50 (RXF 393): 39.2 µM (inactive)
GI50 (SF-295): 23.8 µM (inactive)
GI50 (SF-539): 28.8 µM (inactive)
GI50 (SK-MEL-28): 37 µM (inactive)
GI50 (SK-MEL-2): 78.7 µM (inactive)
GI50 (SK-MEL-5): 31 µM (inactive)
GI50 (SN12C): 40.6 µM (inactive)
GI50 (SNB-19): 43.4 µM (inactive)
GI50 (SNB-75): 84.1 µM (inactive)
GI50 (SR): 8.73 µM (inactive)
GI50 (SW-620): 29 µM (inactive)
GI50 (T47D): > 100 µM (inactive)
GI50 (U-251): 37.2 µM (inactive)
GI50 (UACC-257): > 100 µM (inactive)
GI50 (UACC-62): 33.6 µM (inactive)
GI50 (UO-31): 49.2 µM (inactive)
